In patent US20210037829A1, “ANTIMICROBIAL COMPOSITIONS FOR SURGICAL APPLICATIONS” (TELEFLEX MEDICAL INCORPORATED, priority 2015, published 2021):
Several values for one entry are separate records, joined by “and”; a condition that tells them apart may be missing. Equal values may be shown once.

Assays:
Test in all cases: Time to Kill
Type in all cases: cell-based
Candida albicans = details: 128 ppm; for Exposure time to complete kill: C. albicans, challenge 10^4-10^5 CFU/mL; for Number of Microbial Colonies: Candida albicans, replicates 1-5
Procedure: (§1) Alexidine and Chlorhexidine, both at a concentration of 128 ppm were exposed to a Gram positive bacteria (Staphylococcus aureus), a Gram negative bacteria (Pseudomonas aeruginosa), and a fungus (Candida albicans). The challenge concentration for each organism was 10^4-10^5 CFU/mL, and the exposure time varied from 0.5-60 minutes. […] Complete kill of all three organisms was observed within 0.5-1 minute of Alexidine exposure.

Staphylococcus aureus = details: 128 ppm; for Exposure time to complete kill: S. aureus, challenge 10^4-10^5 CFU/mL; for Number of Microbial Colonies: Staphylococcus aureus, replicates 1-5
Procedure: as §1

Pseudomonas aeruginosa = details: 128 ppm; for Exposure time to complete kill: P. aeruginosa, challenge 10^4-10^5 CFU/mL; for Number of Microbial Colonies: Pseudomonas aeruginosa, replicates 1-5
Procedure: as §1

[1] = exposure 0.5 minutes, TNTC = too numerous to count
[2] = exposure 1 minute, TNTC = too numerous to count
[3] = exposure 5 minutes, TNTC = too numerous to count

| Structure (SMILES) | Exposure time to complete kill (Candida albicans) | Number of Microbial Colonies (Candida albicans; [1]) | Number of Microbial Colonies (Candida albicans; [2]) | Number of Microbial Colonies (Candida albicans; [3]) | Number of Microbial Colonies (Candida albicans; exposure 60 minutes) | Exposure time to complete kill (Staphylococcus aureus) | Number of Microbial Colonies (Staphylococcus aureus; [1]) | Number of Microbial Colonies (Staphylococcus aureus; [2]) | Number of Microbial Colonies (Staphylococcus aureus; [3]) | Number of Microbial Colonies (Staphylococcus aureus; exposure 60 minutes) | Exposure time to complete kill (Pseudomonas aeruginosa) | Number of Microbial Colonies (Pseudomonas aeruginosa; exposure 0.5 minutes) | Number of Microbial Colonies (Pseudomonas aeruginosa; exposure 1 minute) | Number of Microbial Colonies (Pseudomonas aeruginosa; exposure 5 minutes) | Number of Microbial Colonies (Pseudomonas aeruginosa; exposure 60 minutes) |
| --- | --- | --- | --- | --- | --- | --- | --- | --- | --- | --- | --- | --- | --- | --- | --- |
| CCCCC(CC)CNC(=N)NC(=N)NCCCCCCNC(=N)NC(=N)NCC(CC)CCCC (stereo not drawn) [Alexidine] | 0.5 to 1 min | 3 and 0 (4×) | 0 (4×) and 1 | 0 | 0 | 0.5 to 1 min | 0 | 0 | 0 | 0 | 0.5 to 1 min | 0 | 0 | 0 | 0 |
| [H]/N=C(\N/C(=N/[H])NCCCCCCNC(=N)NC(=N)Nc1ccc(Cl)cc1)Nc1ccc(Cl)cc1 [Chlorhexidine] | 60 min | TNTC | TNTC | 30 and 20 and 32 and 24 and TNTC | 0 | 60 min | TNTC | TNTC | TNTC | 1 (2×) and 0 (3×) | 5 min | 7 and 4 and 5 and 2 and 1 | 1 | 0 | 0 |
